The record followed here is US8927533B2, “Thio derivatives bearing lactams as potent HDAC inhibitors and their uses as medicaments” (SIGMA-TAU Industrie Farmaceutiche Riunite S.p.A., priority 2011, dated 2015).

Assay type in all cases: biochemical
One assay deals with T1, HDAC8 (Homo sapiens, UniProt Q9BY41).
T1 sequence (Q9BY41 1-377): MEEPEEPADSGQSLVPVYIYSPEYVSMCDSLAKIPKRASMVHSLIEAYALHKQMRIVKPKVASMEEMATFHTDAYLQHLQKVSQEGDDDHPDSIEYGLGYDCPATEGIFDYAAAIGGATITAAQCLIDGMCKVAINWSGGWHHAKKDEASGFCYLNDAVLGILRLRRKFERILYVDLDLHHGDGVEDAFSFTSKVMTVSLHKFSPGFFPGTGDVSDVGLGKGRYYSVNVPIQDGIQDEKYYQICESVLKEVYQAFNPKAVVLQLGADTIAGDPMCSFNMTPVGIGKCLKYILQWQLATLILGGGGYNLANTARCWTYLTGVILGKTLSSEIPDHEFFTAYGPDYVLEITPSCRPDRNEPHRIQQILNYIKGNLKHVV
Put plainly: HDAC enzymatic assay, HDAC8. As to conditions: fluorogenic tetrapeptide RHKKAc substrate 10 μM; read-out: HDAC isoforms IC50 (nM), 8. The procedure: (§1) Each compound was dissolved in DMSO, and progressively diluted solutions were used for testing. […] Upon its deacetylation, the fluorophore was released given rise to fluorescence emission which was detected by a fluorimeter, and the IC50 values of the compounds were determined by analyzing dose-response inhibition curves.

The next assay deals with HDAC1 (Homo sapiens, UniProt Q13547). Put plainly: HDAC enzymatic assay, HDAC1. As to conditions: fluorogenic tetrapeptide RHKKAc substrate 10 μM; read-out: HDAC isoforms IC50 (nM), 1. As to the method: as §1
For a further assay, the target named is HDAC9 (Homo sapiens, UniProt Q9UKV0). Put plainly: HDAC enzymatic assay, HDAC9. As to conditions: fluorogenic tetrapeptide RHKKAc substrate 10 μM; read-out: HDAC isoforms IC50 (nM), 9. The procedure: as §1
Another assay has as its target T2, HDAC7 (Homo sapiens, UniProt Q8WUI4).
T2 sequence (Q8WUI4 1-952): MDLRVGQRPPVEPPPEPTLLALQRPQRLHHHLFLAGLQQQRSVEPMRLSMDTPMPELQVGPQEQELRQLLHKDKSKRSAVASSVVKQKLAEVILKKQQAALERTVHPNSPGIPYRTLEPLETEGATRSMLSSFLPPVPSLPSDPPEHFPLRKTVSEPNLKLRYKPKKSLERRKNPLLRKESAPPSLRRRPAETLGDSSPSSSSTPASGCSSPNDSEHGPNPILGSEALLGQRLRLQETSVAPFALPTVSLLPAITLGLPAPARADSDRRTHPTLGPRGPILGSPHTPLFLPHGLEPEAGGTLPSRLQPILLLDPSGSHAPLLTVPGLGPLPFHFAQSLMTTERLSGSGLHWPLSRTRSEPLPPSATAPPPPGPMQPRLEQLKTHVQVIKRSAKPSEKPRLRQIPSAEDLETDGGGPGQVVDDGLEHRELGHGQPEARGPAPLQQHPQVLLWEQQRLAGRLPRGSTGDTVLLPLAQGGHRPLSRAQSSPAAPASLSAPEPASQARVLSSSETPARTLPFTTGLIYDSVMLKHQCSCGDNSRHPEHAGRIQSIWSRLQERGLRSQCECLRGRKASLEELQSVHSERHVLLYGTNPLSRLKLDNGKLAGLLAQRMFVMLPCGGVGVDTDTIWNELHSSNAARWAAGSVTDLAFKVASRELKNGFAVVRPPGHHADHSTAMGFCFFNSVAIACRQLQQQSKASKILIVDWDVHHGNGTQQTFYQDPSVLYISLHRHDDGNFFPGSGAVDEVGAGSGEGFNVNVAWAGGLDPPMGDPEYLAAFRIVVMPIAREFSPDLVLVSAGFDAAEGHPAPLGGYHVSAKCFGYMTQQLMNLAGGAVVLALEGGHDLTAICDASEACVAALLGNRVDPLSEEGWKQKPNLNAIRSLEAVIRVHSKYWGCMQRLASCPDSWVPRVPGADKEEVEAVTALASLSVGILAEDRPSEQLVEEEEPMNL
Put plainly: HDAC enzymatic assay, HDAC7. Conditions: fluorogenic tetrapeptide RHKKAc substrate 10 μM; read-out: HDAC isoforms IC50 (nM), 7. The procedure:
as §1

A further assay deals with T3, HDAC10 (Homo sapiens, UniProt Q969S8).
T3 sequence (Q969S8 1-669): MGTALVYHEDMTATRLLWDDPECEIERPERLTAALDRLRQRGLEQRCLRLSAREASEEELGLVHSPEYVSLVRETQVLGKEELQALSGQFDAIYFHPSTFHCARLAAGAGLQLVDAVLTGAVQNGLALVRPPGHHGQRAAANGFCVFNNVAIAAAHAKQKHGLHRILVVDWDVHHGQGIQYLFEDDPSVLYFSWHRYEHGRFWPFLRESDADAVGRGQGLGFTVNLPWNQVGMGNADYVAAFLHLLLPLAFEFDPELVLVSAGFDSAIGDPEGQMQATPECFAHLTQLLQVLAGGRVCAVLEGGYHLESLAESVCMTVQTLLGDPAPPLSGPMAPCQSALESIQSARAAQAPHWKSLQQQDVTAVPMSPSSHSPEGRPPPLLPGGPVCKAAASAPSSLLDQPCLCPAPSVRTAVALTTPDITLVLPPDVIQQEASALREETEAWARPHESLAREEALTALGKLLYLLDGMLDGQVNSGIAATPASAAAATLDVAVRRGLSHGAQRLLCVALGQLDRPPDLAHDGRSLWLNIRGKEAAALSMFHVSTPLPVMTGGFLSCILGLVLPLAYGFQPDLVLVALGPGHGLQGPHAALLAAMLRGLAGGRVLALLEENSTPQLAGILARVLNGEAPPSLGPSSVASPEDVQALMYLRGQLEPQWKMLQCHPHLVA
Kind of assay: HDAC enzymatic assay, HDAC10. Conditions: fluorogenic tetrapeptide RHKKAc substrate 10 μM; read-out: HDAC isoforms IC50 (nM), 10. As to the method:
as §1

Another assay has as its target HDAC5 (Homo sapiens, UniProt Q9UQL6). Put plainly: HDAC enzymatic assay, HDAC5. Conditions: fluorogenic tetrapeptide RHKKAc substrate 10 μM; read-out: HDAC isoforms IC50 (nM), 5. The procedure:
as §1

Some results are limits rather than exact numbers.

HDAC1, sequence (Q13547 whole entry, canonical isoform): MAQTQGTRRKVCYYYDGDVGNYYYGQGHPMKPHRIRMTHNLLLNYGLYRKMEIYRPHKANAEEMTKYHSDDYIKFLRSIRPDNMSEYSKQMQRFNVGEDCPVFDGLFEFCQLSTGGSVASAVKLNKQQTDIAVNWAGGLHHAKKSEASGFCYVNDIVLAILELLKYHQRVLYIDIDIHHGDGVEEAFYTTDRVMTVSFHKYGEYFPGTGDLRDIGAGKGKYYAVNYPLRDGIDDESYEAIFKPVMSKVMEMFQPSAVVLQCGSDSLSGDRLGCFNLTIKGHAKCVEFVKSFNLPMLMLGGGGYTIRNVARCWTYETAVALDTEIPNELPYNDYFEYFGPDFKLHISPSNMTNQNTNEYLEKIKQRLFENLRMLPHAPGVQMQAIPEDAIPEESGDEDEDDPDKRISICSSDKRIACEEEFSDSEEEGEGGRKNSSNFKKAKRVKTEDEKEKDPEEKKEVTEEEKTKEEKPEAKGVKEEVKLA
HDAC5, sequence (Q9UQL6 whole entry, canonical isoform): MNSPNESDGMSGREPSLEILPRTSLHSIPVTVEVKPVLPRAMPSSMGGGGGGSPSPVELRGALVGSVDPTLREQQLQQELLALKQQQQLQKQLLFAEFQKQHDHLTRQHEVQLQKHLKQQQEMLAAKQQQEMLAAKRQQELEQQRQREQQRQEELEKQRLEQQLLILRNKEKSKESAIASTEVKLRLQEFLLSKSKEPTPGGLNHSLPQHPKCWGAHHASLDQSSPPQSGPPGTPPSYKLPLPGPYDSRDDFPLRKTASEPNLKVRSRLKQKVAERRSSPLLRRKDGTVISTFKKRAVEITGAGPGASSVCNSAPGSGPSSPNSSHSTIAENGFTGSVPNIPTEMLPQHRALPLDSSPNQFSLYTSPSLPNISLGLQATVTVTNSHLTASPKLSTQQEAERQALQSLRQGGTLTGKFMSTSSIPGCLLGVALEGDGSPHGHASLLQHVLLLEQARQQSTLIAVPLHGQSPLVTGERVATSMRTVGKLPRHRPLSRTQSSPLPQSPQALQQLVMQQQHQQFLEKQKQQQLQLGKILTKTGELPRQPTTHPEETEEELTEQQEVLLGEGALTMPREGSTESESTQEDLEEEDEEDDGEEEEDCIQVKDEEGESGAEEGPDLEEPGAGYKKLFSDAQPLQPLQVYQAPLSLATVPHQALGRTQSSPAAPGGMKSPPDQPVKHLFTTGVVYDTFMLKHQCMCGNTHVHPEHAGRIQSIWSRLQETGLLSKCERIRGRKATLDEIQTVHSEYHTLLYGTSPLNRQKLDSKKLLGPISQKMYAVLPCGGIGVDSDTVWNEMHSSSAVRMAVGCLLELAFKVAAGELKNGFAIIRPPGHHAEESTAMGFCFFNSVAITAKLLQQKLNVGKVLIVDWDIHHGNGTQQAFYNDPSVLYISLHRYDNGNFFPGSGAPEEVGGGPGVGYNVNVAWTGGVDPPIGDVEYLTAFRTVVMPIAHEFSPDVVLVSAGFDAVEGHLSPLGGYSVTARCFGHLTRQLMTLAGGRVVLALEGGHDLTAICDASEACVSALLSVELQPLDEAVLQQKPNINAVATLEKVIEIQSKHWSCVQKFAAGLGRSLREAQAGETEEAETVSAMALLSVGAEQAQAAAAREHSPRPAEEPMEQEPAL
HDAC9, sequence (Q9UKV0 whole entry, canonical isoform): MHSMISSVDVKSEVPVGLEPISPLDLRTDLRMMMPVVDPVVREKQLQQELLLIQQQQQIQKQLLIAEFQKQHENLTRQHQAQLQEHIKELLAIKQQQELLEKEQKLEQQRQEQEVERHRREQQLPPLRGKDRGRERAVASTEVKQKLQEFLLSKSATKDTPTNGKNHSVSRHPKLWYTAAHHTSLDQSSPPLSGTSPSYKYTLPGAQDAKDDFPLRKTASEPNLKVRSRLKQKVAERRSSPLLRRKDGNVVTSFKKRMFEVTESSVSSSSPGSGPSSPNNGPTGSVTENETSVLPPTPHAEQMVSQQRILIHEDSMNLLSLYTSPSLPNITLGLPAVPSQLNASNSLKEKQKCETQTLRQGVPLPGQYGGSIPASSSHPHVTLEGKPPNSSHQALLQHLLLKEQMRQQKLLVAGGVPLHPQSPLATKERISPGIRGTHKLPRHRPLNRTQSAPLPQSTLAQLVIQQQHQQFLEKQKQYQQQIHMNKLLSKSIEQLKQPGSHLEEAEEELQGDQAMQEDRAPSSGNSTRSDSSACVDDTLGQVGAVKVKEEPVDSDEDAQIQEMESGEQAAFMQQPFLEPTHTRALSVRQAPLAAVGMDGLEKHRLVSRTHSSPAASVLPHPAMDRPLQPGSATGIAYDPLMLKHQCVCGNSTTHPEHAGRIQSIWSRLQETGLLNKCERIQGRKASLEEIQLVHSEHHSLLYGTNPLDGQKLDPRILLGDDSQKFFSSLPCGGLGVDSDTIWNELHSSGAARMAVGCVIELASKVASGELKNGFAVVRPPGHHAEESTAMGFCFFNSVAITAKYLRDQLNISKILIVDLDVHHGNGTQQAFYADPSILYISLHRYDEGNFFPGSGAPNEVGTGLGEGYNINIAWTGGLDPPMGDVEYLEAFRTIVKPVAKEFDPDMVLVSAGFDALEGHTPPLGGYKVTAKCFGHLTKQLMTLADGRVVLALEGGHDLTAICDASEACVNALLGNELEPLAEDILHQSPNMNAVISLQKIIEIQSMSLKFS

Regarding `O=C1CCC[C@@H](C(=O)N[C@@H](CCCCCS)C(=O)Nc2ccccc2)N1` [Example 23, (S)-6-Oxo-piperidine-2-carboxylic acid ((S)-6-mercapto-1-phenylcarbamoyl-hexyl)amide], the IC50 (as a rule, the concentration that inhibits the measured activity by half) at HDAC8 is 100 to 500 nM; on HDAC1, under 50 nM; at HDAC9, under 50 nM; at HDAC7 it was under 50 nM; at HDAC10 it was under 50 nM; on HDAC5, under 50 nM.
As for `O=C1CCC[C@@H](C(=O)N[C@@H](CCCCCS)C(=O)NC2CCCC2)N1` [Example 24, (S)-6-Oxo-piperidine-2-carboxylic acid ((S)-1-cyclopentylcarbamoyl-6-mercapto-hexyl)amide], the half-inhibitory concentration (IC50) was 100 to 500 nM on HDAC8; 100 to 500 nM at HDAC1; under 50 nM at HDAC9; under 50 nM on HDAC7; 100 to 500 nM on HDAC10; 100 to 500 nM on HDAC5.
`O=C1CCC[C@@H](C(=O)N[C@@H](CCCCCS)C(=O)NCc2cccc(OCc3ccccc3)c2)N1` [Example 25, (S)-6-Oxo-piperidine-2-carboxylic acid [(S)-1-(3-benzyloxy-benzylcarbamoyl)-6-mercapto-hexyl]-amide]: the IC50 at HDAC8 is under 50 nM; at HDAC1, 100 to 500 nM; on HDAC9 it was 100 to 500 nM; on HDAC7, 100 to 500 nM; on HDAC10 it was 100 to 500 nM; on HDAC5, 100 to 500 nM.
`O=C1CCC[C@@H](C(=O)N[C@@H](CCCCCS)C(=O)NCc2ccc(C(F)(F)F)cc2)N1` [Example 26, (S)-6-Oxo-piperidine-2-carboxylic acid [(S)-6-mercapto-1-(4-trifluoromethyl-benzylcarbamoyl)-hexyl]-amide]: the IC50 was under 50 nM at HDAC8; 100 to 500 nM at HDAC1; 100 to 500 nM at HDAC9; 100 to 500 nM on HDAC7; 100 to 500 nM at HDAC10; 100 to 500 nM on HDAC5.
As for `O=C1C[C@@H](C(=O)N[C@@H](CCCCCS)C(=O)Nc2ccccc2)N1` [Example 27, (S)-4-Oxo-azetidine-2-carboxylic acid ((S)-6-mercapto-1-phenylcarbamoyl-hexyl)amide], the half-maximal inhibitory concentration (IC50) is 50 to 100 nM at HDAC8; under 50 nM at HDAC1; under 50 nM on HDAC9; under 50 nM at HDAC7; under 50 nM at HDAC10; under 50 nM at HDAC5.
`O=C1NC[C@H](c2ccccc2)[C@@H]1C(=O)N[C@@H](CCCCCS)C(=O)Nc1ccccc1` [Example 28, (3S,4S)-2-Oxo-4-phenyl-pyrrolidine-3-carboxylic acid ((S)-6-mercapto-1-phenylcarbamoyl-hexyl)-amide]: the concentration for half-maximal inhibition (IC50) on HDAC8 was 100 to 500 nM; on HDAC1, under 50 nM; on HDAC9 it was under 50 nM; at HDAC7, 100 to 500 nM; on HDAC10, under 50 nM; at HDAC5 it was 50 to 100 nM.
In the case of `O=C1NC[C@@H](c2ccccc2)[C@H]1C(=O)N[C@@H](CCCCCS)C(=O)Nc1ccccc1` [Example 29, (3R,4R)-2-Oxo-4-phenyl-pyrrolidine-3-carboxylic acid ((S)-6-mercapto-1-phenylcarbamoyl-hexyl)-amide], the IC50 at HDAC8 is 100 to 500 nM; on HDAC1, 50 to 100 nM; at HDAC9, 50 to 100 nM; at HDAC7 it was 100 to 500 nM; at HDAC10, under 50 nM; at HDAC5, 100 to 500 nM.
Turning to `O=C1NC[C@H](c2ccccc2)[C@H]1C(=O)N[C@@H](CCCCCS)C(=O)Nc1ccccc1` [Example 30, (3R,4S)-2-Oxo-4-phenyl-pyrrolidine-3-carboxylic acid ((S)-6-mercapto-1-phenylcarbamoyl-hexyl)-amide], the IC50 is 100 to 500 nM on HDAC8; 50 to 100 nM at HDAC1; 50 to 100 nM on HDAC9; 100 to 500 nM at HDAC7; under 50 nM on HDAC10; 100 to 500 nM at HDAC5.
For the compound `O=C1CCC[C@@H](C(=O)N[C@@H](CCCCCS)C(=O)N2CCc3ccccc3C2)N1` [Example 32, (S)-6-Oxo-piperidine-2-carboxylic acid [(S)-1-(3,4-dihydro-1H-isoquinoline-2-carbonyl)-6-mercapto-hexyl]-amide], the IC50 on HDAC8, on HDAC1, on HDAC9, at HDAC7, at HDAC10 and at HDAC5 was 100 to 500 nM in each case.
Take `Cc1cccc(CCNC(=O)[C@H](CCCCCS)NC(=O)[C@@H]2CCCC(=O)N2)c1` [Example 34, (S)-6-Oxo-piperidine-2-carboxylic acid [(S)-6-mercapto-1-(2-m-tolyl-ethylcarbamoyl)hexyl]-amide]: the IC50 was under 50 nM at HDAC8; 50 to 100 nM on HDAC1; 100 to 500 nM at HDAC9; 100 to 500 nM at HDAC7; 50 to 100 nM at HDAC10; 100 to 500 nM on HDAC5.
In the case of `O=C1NCCC[C@H]1C(=O)N[C@@H](CCCCCS)C(=O)Nc1ccccc1` [Example 35, (R)-2-Oxo-piperidine-3-carboxylic acid ((S)-6-mercapto-1-phenylcarbamoyl-hexyl)amide], the IC50 is 50 to 100 nM on HDAC8; under 50 nM at HDAC1; under 50 nM at HDAC9; under 50 nM on HDAC7; under 50 nM on HDAC10; under 50 nM at HDAC5.
As for `O=C1NCCC[C@@H]1C(=O)N[C@@H](CCCCCS)C(=O)Nc1ccccc1` [Example 36, (S)-2-Oxo-piperidine-3-carboxylic acid ((S)-6-mercapto-1-phenylcarbamoyl-hexyl)amide], the IC50 is 100 to 500 nM on HDAC8; under 50 nM at HDAC1; under 50 nM at HDAC9; 50 to 100 nM at HDAC7; under 50 nM at HDAC10; under 50 nM at HDAC5.
Turning to `O=C1CCC[C@H](C(=O)N[C@@H](CCCCCS)C(=O)Nc2ccccc2)N1` [Example 37, (R)-6-Oxo-piperidine-2-carboxylic acid ((S)-6-mercapto-1-phenylcarbamoyl-hexyl)amide], the IC50 on HDAC8 was 100 to 500 nM; at HDAC1, under 50 nM; on HDAC9, under 50 nM; on HDAC7, 100 to 500 nM; on HDAC10 it was under 50 nM; on HDAC5, under 50 nM.
